Tested on: normal subjects (subjective symptoms of fatigue)
Test: Test Example 1: subjective symptoms of fatigue by visual analogue scale (VAS) method, tablets for 3 weeks
Type: in vivo, human
Conditions: 6 tablets of Example 1 per day for 3 weeks
Method: A test was carried out as follows. […] Evaluation was carried out in terms of the subjective symptoms of fatigue in the test subjects at the start and completion of the test using a visual analogue scale (VAS) method.
Specifically, each end of the segment has a criterion of expression. Referring to FIG. 1 or 2, each subject was allowed to mark somewhere in the segment, corresponding to each term of the questionnaires. Among the subjective symptoms of fatigue, questionnaires 1 to 8 represent indices related to “drowsiness and dullness”, and questionnaires 9 to 15 represent indices related to “difficulty in concentration”.
The distance (mm) from the left end of the segment to the marked point was measured and the difference between before and after the test was calculated. The difference by the value before the test was shown in the percentage calculated; and the average value and standard deviation for each group were calculated. […] Further, it was confirmed that there was no difference between two groups at the start of the test.
Further, the test was carried out under a random assignment and the comparison between the double blind parallel groups was carried out.

## Cl.NCCC[C@H](N)C(=O)O [ornithine, ornithine hydrochloride]
VAS questionnaires 1 to 15, versus placebo group, FIG. 3 and 4
  relieving effect on subjective symptoms of fatigue, all terms (drowsiness and dullness; difficulty in concentration): relieving effect
VAS, unpaired t-test
  "having difficulty thinking": difference between the placebo group and the ornithine group: significant difference

Reference: patent publication US20090232917A1, “COMPOSITION FOR RELIEVING SUBJECTIVE SYMPTOMS OF FATIGUE” (Kyowa Hakko Kogyo Co., Ltd., priority 2005, published 2009)
